# Experimental data taken from patent publication US11339142B2, “Di-substituted pyrazole compounds for the treatment of diseases” (FGH BIOTECH, INC., priority 2016, dated 2022).
# pIC50: −log10 of the molar value.
# Assays:
# PCSK9 expression = assay: Quantitative PCR (qPCR) inhibition assay, PCSK9 mRNA expression in Hep G2 cells; format: cell-based; details: Homo sapiens, HepG2 cells, 24 hours incubation, mRNA by qPCR; for inhibition at 0.32 µM: 320 nM, read-out: PCSK9 Inhibition Percentage (%) at 320 nM
# Protocol: Hep G2 cells were obtained from ATCC and grown in DMEM supplemented with 5% FBS in a 5% CO2 incubator at 37° C. For the assay the cells were plated in 24 well plates at a concentration of 100,000 cells/well in DMEM with 5% FBS. The compounds were serially diluted in DMSO from 0.1 to 20 mM and then diluted 1:1000 in growth medium. The medium was added to the cells in duplicate 24 hours after plating. After 24 hours of incubation the RNA was isolated from the cells using the illustra RNAspin Mini kit (GE Healthcare). For the quantitative PCR the RNA was analyzed using the Power SYBR® Green PCR Master Mix (Applied Biosystems) and gene specific primers. The reaction was run on a StepOnePlus Real-Time PCR System (Thermo Fisher Scientific) and the instrument software was used to determine the Ct values. The fold change of mRNA expression relative to the vehicle control was calculated. Primer sequence was as follows: PCSK9, 5′-[…]-3′/5′-[…]-3′.
# (§1) All data for Biological Examples 1a and 1b were measured in HepG2 cells. % inhibition of SCD1 expression, % inhibition of PCSK9 expression, and PCSK9 IC50 data are provided in Table 1. NA means the compound was not active at the concentration tested.
# SCD1 expression = assay: Quantitative PCR (qPCR) inhibition assay, SCD1 mRNA expression in Hep G2 cells; format: cell-based; details: Homo sapiens, HepG2 cells, 24 hours incubation, mRNA by qPCR, read-out: SCD1 Inhibition Percentage (%) at 1 μM
# Protocol: Hep G2 cells were obtained from ATCC and grown in DMEM supplemented with 10% FBS in a 5% CO2 incubator at 37° C. For the assay the cells were plated in 96 well plates at a concentration of 75,000 cells/well in DMEM with 5% FBS. The compounds were serially diluted in DMSO from 30 to 0.1 mM and then diluted 1:1000 in growth medium. The medium was added to the cells in duplicate 24 hours after plating. After 24 hours of incubation the RNA was isolated from the cells using the RNAqueous®-96 Total RNA Isolation Kit (Ambion). The eluted RNA was reverse transcribed using the Cells-to-Ct kit reverse transcriptase (Ambion). For the quantitative PCR the cDNA was analyzed using the Power SYBR® Green PCR Master Mix (Applied Biosystems) and gene specific primers. The reaction was run on an ABI7300 thermocycler and the instrument software was used to determine the Ct values. The fold change of mRNA expression relative to the vehicle control was calculated using the method by Livak. Primer sequence was as follows: SCD1, 5′-[…]-3′/5′-[…]-3′.
# as §1
pIC50 (PCSK9 expression),SMILES,inhibition at 0.32 µM (PCSK9 expression),inhibition at 1 µM (SCD1 expression)
,CCCn1cc(-n2cc(-c3ccc(OCC(C)C)nc3C)cn2)ccc1=O [Example 5],≥ 40%,≥ 40%
≥ 6.82,CCCn1cc(-n2cc(-c3ccc(S(=O)(=O)C4CCC4)cc3Cl)cn2)ccc1=O [Example 23],,≥ 40%
,CCCn1cc(-n2cc(-c3ccc(O[C@@H](C)CC)nc3C)cn2)ccc1=O [Example 9],≥ 40%,≥ 40%
,CCCn1cc(-n2cc(-c3ccc(S(=O)(=O)CC(C)C)cc3Cl)cn2)ccc1=O [Example 18],10 to 40%,10 to 40%
6.22 to 6.82,CCCn1cc(-n2cc(-c3ccc(OCC4CC4)nc3C)cn2)ccc1=O [Example 6],10 to 40%,≥ 40%
